Values after ≈ are worked out from the molar mass of the structure shown. Read-outs that look alike come from different tables or passages of the source.
How the values were obtained:
[1] = target: T1, hemoglobin (20% hct blood) (Homo sapiens, UniProt P68871+P69905); experiment: Dose-dependent whole blood OEC studies; assay type: cell-based; details: 37° C., 1 hr
T1 construct: Normal whole blood was collected from adult healthy donors; from tissue; host or cells: normal human whole blood (red blood cells), adult healthy donors
T1 sequence (P69905 2-142 limits assumed): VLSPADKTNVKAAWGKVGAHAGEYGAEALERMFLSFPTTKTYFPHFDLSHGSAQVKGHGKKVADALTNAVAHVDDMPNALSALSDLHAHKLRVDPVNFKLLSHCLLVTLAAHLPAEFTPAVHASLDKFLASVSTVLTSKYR
T1 sequence (P68871 2-147 limits assumed): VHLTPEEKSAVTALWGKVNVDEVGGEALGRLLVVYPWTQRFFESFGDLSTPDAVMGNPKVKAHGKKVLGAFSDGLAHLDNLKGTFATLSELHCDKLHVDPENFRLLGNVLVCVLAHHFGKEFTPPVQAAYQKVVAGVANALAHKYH
How it was run: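 Human whole blood at 20% hct shaken with 0.2, 0.5 or 1 mM compound at 37° C. for 1 hr; DMSO (1%) vehicle control. Oxygen equilibrium curves gave pO2 and Hb oxygen saturation (sO2), reported as delta p50%.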

[2] = Solubility in JP1, JP2 and FaSSIF buffers; assay type: physicochemical; details: 25 °C, thermodynamic from solid, room temperature
Description: Conditions: 1. JP1 buffer (84 mM HCl, 34.22 mM NaCl, pH 1.2); 2. JP2 buffer (50 mM phosphate buffer at pH 6.8); 3. FaSSIF buffer, pH 6.5 (Preparation: In about 0.9 L of purified water dissolve 0.420 g of NaOH (pellets), 4.470 g of NaH2PO4 (dihydrate), 6.186 g of NaCl; Adjust the pH to 6.5 with Sodium hydroxide 1N or Hydrochloric acid 1N, to make up to volume (1 L) with purified water at room temperature; Add 0.224 g of SIF Powder Original to about 0.5 L of pH 6.5 blank buffer and stir until powder is completely dissolved; Let stand for 2 hour. FaSSIF buffer is now ready to use.
Procedures: 1. accurately weighed about 2 mg test compounds and controls in whatman vials, then transferred 450 μL buffer in to the vials; 2. Filter pistons of miniuniprep vials were placed and compressed to the position of the liquid level to allow for contact. Vortexed for 2 minutes; 3. […] Miniunipreps were compressed to prepare the filtrates for injection into HPLC system; 5. Diluted the filtrates with buffer by a factor of 50 fold to make diluents; 6. Determined the test compound concentration of the diluents and filtrates using HPLC-UV.

[3] = Pharmacokinetic study in rats (plasma and red blood cell); assay type: in vivo; details: male, Sprague-Dawley, rat, oral, 7.2 mg/kg
Description: Rats (Sprague-Dawley, male, 220-280 g) were dosed with GBT-440 (HCl salt) and one of three compounds corresponding to Example 27, 29, and 38. The rats received oral (7.2 mpk) doses of the compound. Rats were fasted overnight before the experiments and provided with food four hours after dosing. The oral dosing formulations was prepared as follows: approximately 10 mg of compound was weighed precisely to an appropriate size of container, to which was added 2 mL of vehicle 0.5% methylcellulose in water and 8 μL 0.5% sodium dodecyl sulfate. The mixture was then transferred into a glass vial, and volume adjusted to appropriate volume with 0.5% methylcellulose to obtain a final concentration of 0.72 mg·mL^−1, and then vortexed and sonicated briefly.
Whole blood sample collection: Blood samples ([…]) were collected at pre-dose, 15, 30 min, 1, 2, 4, 8, 12 and 24 h via jugular vein into tubes and anticoagulated with 3.2% TSC (trisodium citrate). The proportion of anticoagulant and blood was 1:9 (v/v). The sampling time was recorded accordingly. The tubes were gently inverted several times to ensure mixing. Then 10 μL doses of whole blood sample was transferred to a new EP tube and duplicated in wet ice.
Plasma sample collection: The remaining whole blood was processed by centrifugation at 5,500 rpm for 10 min. The supernate was collected. All these whole blood and plasma samples were kept below −20° C. for 1 h prior to analysis.
(§1) Plasma sample preparation: An aliquot of 20 μL of sample was transferred to sample treatment tube (1.5 mL EP tube), and then 100 μL ACN (0.5% FA) containing Verapamil, 5 ng·mL^−1 and Glibenclamide, 50 ng·mL^−1 for protein precipitation was added. The mixture was vortexed for 30 min, and then centrifuged at 13000 rpm for 5 min at room temperature. After that, 70 μL of supernatant was transferred to a 96-Well Plate, to which 70 μL of water added and then vortexed for 10 min at room temperature. An aliquot of 10 μL of this mixture was analyzied using LC-MS/MS.
as §1, with “Whole blood” for “Plasma”, “10” for “20”, “500” for “100”, “water was” for “water”, “analyzed” for “analyzied”
Plasma and red blood cell concentration-time data were processed by linear regression analysis. All pharmacokinetic parameters were calculated using non-compartment model of Pharsight Phoenix 6.3.
Red blood cell concentrations were calculated according to the method below: Mass balance equation: Cb·VB=Cp·Vp+CBC·VBC Where, Cb=Concentration of whole blood; VB=Volume of whole blood; Cp=Concentration of plasma; Vp=Volume of plasma; CBC=Concentration of blood cell; VBC=Volume of blood cell. VBC=H·VB, where H is the hematocrit number. Vp=(1−H)·VB

For [2H]C([2H])(Oc1cccc(O)c1C=O)c1cncnc1-c1ccnn1C(C)C [Example 38, 2-hydroxy-6-((4-(1-isopropyl-1H-pyrazol-5-yl)pyrimidin-5-yl)methoxy-d2)benzaldehyde], the “delta p50 0.2 mM” value ([1]; 0.2 mM compound) was −15.20%, the “delta p50 0.5 mM” value ([1]; 0.5 mM compound) was −46.80% and the solubility at 24 h ([2]; aqueous buffer, JP2 buffer (50 mM phosphate) pH 6.8, 24 hr, read-out: JP2 Solubility) was 15.1 µg/mL (≈ 44.4 µM). It also gave a solubility at 24 h ([2]; simulated gastric fluid, JP1 buffer pH 1.2, 24 hr, read-out: JP1 Solubility) of 20 µg/mL (≈ 58.6 µM), a solubility at 24 h ([2]; FaSSIF buffer pH 6.5, 24 hr, read-out: FaSSIF Solubility) of 26.6 µg/mL (≈ 78.1 µM) and an AUC(0-t) ([3]; red blood cells, red blood cell (calculated by mass balance from whole blood and plasma), read-out: AUC0-24 h RBC) of 1730 µg·h/mL. The Cmax ([3]; red blood cells, red blood cell (calculated by mass balance from whole blood and plasma), read-out: Cmax RBC) was 116 µg/mL, the half-life ([3]; red blood cells, red blood cell, read-out: T1/2 RBC (converted)) was 660 min and the AUC(0-t) ([3]; plasma, read-out: AUC0-24 h Plasma) was 10.7 µg·h/mL. The Cmax ([3]; plasma, read-out: Cmax Plasma) was 0.753 µg/mL and the half-life ([3]; plasma, read-out: T1/2 Plasma (converted)) was 660 min.

From patent US10787430B2, “Hemoglobin modifier compounds and uses thereof” (FronThera U.S. Pharmaceuticals LLC, priority 2016, dated 2020)
